Experimental data taken from patent US6979686B1, “Substituted pyrazoles as p38 kinase inhibitors” (Pharmacia Corporation, priority 2001, dated 2005).

These compounds were tested against T1, human p38 kinase alpha (Homo sapiens, UniProt Q16539) (assay: p38 kinase in vitro assay, phosphorylation of biotinylated PHAS-I with 32P-ATP). Details: @ 1.0 uM.
T1 construct: GST (N, cleaved yes); made in house; host or cells: E. coli DH10B
Type: biochemical

T1 sequence (Q16539 whole entry): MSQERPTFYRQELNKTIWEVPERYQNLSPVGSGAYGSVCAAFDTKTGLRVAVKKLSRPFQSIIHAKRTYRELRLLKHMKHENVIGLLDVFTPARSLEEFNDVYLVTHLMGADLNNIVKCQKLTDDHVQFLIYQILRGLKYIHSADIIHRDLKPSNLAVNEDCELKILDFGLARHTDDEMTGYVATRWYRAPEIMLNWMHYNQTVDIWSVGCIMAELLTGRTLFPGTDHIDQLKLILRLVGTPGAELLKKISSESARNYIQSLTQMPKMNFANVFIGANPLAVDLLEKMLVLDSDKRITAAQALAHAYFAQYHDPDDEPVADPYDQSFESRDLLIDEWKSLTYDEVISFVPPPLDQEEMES

P38 alpha kinase % inhib @ conc. (uM) | P38 alpha kinase % inhib @ conc. | Structure (SMILES)
86.0% @ | – | O=C(NCCc1[nH]nc(-c2ccc(F)cc2)c1-c1ccncc1)N1CCOCC1 [Example B-1033]
87.0% @ | – | O=S(=O)(Cc1ccccc1)NCCCc1[nH]nc(-c2ccc(F)cc2)c1-c1ccncc1 [Example B-1194]
78.0% @ | – | O=S(=O)(NCCCc1[nH]nc(-c2ccc(F)cc2)c1-c1ccncc1)c1ccc(F)cc1 [Example B-1190]
82.0% @ | – | CCCS(=O)(=O)NCCc1[nH]nc(-c2ccc(F)cc2)c1-c1ccncc1 [Example B-1021]
70.0% @ | – | Cc1ccc(C(=O)NCCc2[nH]nc(-c3ccc(F)cc3)c2-c2ccncc2)cc1 [Example B-1002]
68.0% @ | – | COc1cccc(NC(=O)NCCc2[nH]nc(-c3ccc(F)cc3)c2-c2ccncc2)c1 [Example B-0948]
– | 77.0% @ | O=S(=O)(NCCCc1[nH]nc(-c2ccc(F)cc2)c1-c1ccncc1)c1ccccc1F [Example B-1197]
– | 74.0% @ | COc1ccc(S(=O)(=O)NCCCc2[nH]nc(-c3ccc(F)cc3)c2-c2ccncc2)cc1OC [Example B-1205]
68.0% @ | – | COc1ccccc1C(=O)NCCCc1[nH]nc(-c2ccc(F)cc2)c1-c1ccncc1 [Example B-1172]

Same assay, conditions: @ 1.0 uM; read-out: P38 alpha kinase % inhib @ conc.

inhibition at 1 µM | Structure (SMILES)
74% | O=C(NCc1[nH]nc(-c2ccc(F)cc2)c1-c1ccncc1)c1ccc(Br)cc1 [Example B-0007]
90% | N#Cc1cccc(C(=O)NCc2[nH]nc(-c3ccc(F)cc3)c2-c2ccncc2)c1 [Example B-0023]

Same assay, conditions: @ 10.0 uM

P38 alpha kinase % inhib @ conc. | P38 alpha kinase IC50, uM or % inhib @ conc. (uM): % inhib | Structure (SMILES)
44.0% @ | – | Cc1c(-c2ccncc2)c(-c2ccc(F)cc2)nn1CC(=O)NC(Cc1ccccc1)c1ccccc1 (centres unmarked) [Example B-2320]
– | 88.0% @ | Cc1c(-c2ccncc2)c(-c2ccc(F)cc2)nn1CC(=O)Nc1ccc(Cl)cc1 [Example B-2418]
– | 33.0% @ | Cc1c(-c2ccncc2)c(-c2ccc(F)cc2)nn1CC(=O)N1Cc2ccsc2CC1c1ccc(Cl)cc1 (centres unmarked) [Example B-2410]
– | 84.0% @ | Cc1c(-c2ccncc2)c(-c2ccc(F)cc2)nn1CC(=O)Nc1ccccc1C(C)(C)C [Example B-2435]
– | 78.0% @ | Cc1c(-c2ccncc2)c(-c2ccc(F)cc2)nn1CC(=O)N1CCSC1c1ccco1 (centres unmarked) [Example B-2409]
– | 85.0% 2 | COc1ccc(OC)c(NC(=O)Cn2nc(-c3ccc(F)cc3)c(-c3ccncc3)c2C)c1 [Example B-2431]
– | 40.0% @ | CCN(CC)C1CCN(C(=O)Cn2nc(-c3ccc(F)cc3)c(-c3ccncc3)c2C)C1 (centres unmarked) [Example B-2391]
71.0% @ | – | Cc1c(-c2ccncc2)c(-c2ccc(F)cc2)nn1CC(=O)NC(C)c1ccc(Br)cc1 (centres unmarked) [Example B-2344]
– | 43.0% @ | Cc1c(-c2ccncc2)c(-c2ccc(F)cc2)nn1CC(=O)N(CCc1ccccc1)CCc1ccccn1 [Example B-2402]
– | 89.0% 2 | Cc1c(-c2ccncc2)c(-c2ccc(F)cc2)nn1CC(=O)Nc1c(Cl)cccc1Cl [Example B-2421]

Same assay, conditions: @ 100.0 uM

P38 alpha kinase % inhib @ conc. | Structure (SMILES)
81% @ | CC(=O)N1CCN(C(=O)Cn2nc(-c3ccc(F)cc3)c(-c3ccncc3)c2C)CC1 [Example B-2380]

Same assay, conditions: Table 8; 1% DMSO; read-out: p38α Kinase Assay IC50

IC50 | Structure (SMILES)
0.036 µM | CN1CCN(Cc2n[nH]c(-c3ccc(F)cc3)c2-c2ccncc2)CC1 [A-313, Step 3, 1-[[5-(4-fluorophenyl)-4-(4-pyridinyl)-1H-pyrazol-3-yl]methyl]-4-methylpiperazine]

Same assay, conditions: activated human p38 kinase alpha, PHAS-I substrate, 50 μM unlabeled ATP; read-out: p38 kinase IC50

IC50 | Structure (SMILES)
0.3 µM | Cc1cccc(-c2n[nH]c(-c3cccc(C)c3)c2-c2ccncc2)c1 [Example A-28]

Same assay, conditions: in vitro P38-alpha kinase inhibition; read-out: P38 alpha kinase IC50

IC50 | Structure (SMILES)
< 0.1 µM | O=S(=O)(NCCc1[nH]nc(-c2ccc(F)cc2)c1-c1ccncc1)c1cccc2cccnc12 [Example B-1071]
0.5 µM | C=CCNC(=O)NC(Cc1ccccc1)c1[nH]nc(-c2ccc(F)cc2)c1-c1ccncc1 (centres unmarked) [Example B-0779]
7 µM | CC(NC(=O)NC(Cc1ccccc1)c1[nH]nc(-c2ccc(F)cc2)c1-c1ccncc1)c1ccccc1 (centres unmarked) [Example B-0784]
0.73 µM | O=C(NCCc1[nH]nc(-c2ccc(F)cc2)c1-c1ccncc1)c1ccc(F)cc1F [Example B-1152]
3.62 µM | CC(NC(=O)c1ccc(I)cc1)c1[nH]nc(-c2ccc(F)cc2)c1-c1ccncc1 (centres unmarked) [Example B-0540]
0.44 µM | Cc1noc(C)c1C(=O)NC(C)c1[nH]nc(-c2ccc(F)cc2)c1-c1ccncc1 (centres unmarked) [Example B-0706]
< 0.1 µM | Cc1ccc(C)c(S(=O)(=O)NCCc2[nH]nc(-c3ccc(F)cc3)c2-c2ccncc2)c1 [Example B-1096]
0.82 µM | CC(NS(=O)(=O)C(C)C)c1[nH]nc(-c2ccc(F)cc2)c1-c1ccncc1 (centres unmarked) [Example B-0564]
26 µM | CC(NC(=O)NC(Cc1ccccc1)c1[nH]nc(-c2ccc(F)cc2)c1-c1ccncc1)c1ccccc1 (centres unmarked) [Example B-0736]
0.032 µM | CC(NS(=O)(=O)c1cccs1)c1[nH]nc(-c2ccc(F)cc2)c1-c1ccncc1 (centres unmarked) [Example B-0575]
0.58 µM | CC(NS(=O)(=O)c1cc(Cl)cc(Cl)c1)c1[nH]nc(-c2ccc(F)cc2)c1-c1ccncc1 (centres unmarked) [Example B-0641]
1.7 µM | O=S(=O)(NC(Cc1ccccc1)c1[nH]nc(-c2ccc(F)cc2)c1-c1ccncc1)c1ccc(F)cc1 (centres unmarked) [Example B-0707]
0.38 µM | CC(NC(=O)c1ccc(F)c(F)c1)c1[nH]nc(-c2ccc(F)cc2)c1-c1ccncc1 (centres unmarked) [Example B-0678]
2.12 µM | CCNC(=O)NC(C)c1[nH]nc(-c2ccc(F)cc2)c1-c1ccncc1 (centres unmarked) [Example B-0598]
< 0.1 µM | CC(NS(=O)(=O)c1ccc(-c2ccon2)s1)c1[nH]nc(-c2ccc(F)cc2)c1-c1ccncc1 (centres unmarked) [Example B-0662]
1.73 µM | O=C(NC(Cc1ccccc1)c1[nH]nc(-c2ccc(F)cc2)c1-c1ccncc1)c1ccccc1I (centres unmarked) [Example B-0798]
0.057 µM | CC(=O)NC(Cc1ccccc1)c1[nH]nc(-c2ccc(F)cc2)c1-c1ccncc1 (centres unmarked) [Example B-0803]
0.45 µM | CC(NC(=O)c1cc(F)ccc1F)c1[nH]nc(-c2ccc(F)cc2)c1-c1ccncc1 (centres unmarked) [Example B-0697]
0.97 µM | CCCOC(=O)NC(C)c1[nH]nc(-c2ccc(F)cc2)c1-c1ccncc1 (centres unmarked) [Example B-0602]
0.2 µM | CC(NS(=O)(=O)c1cc(Cl)c(Cl)s1)c1[nH]nc(-c2ccc(F)cc2)c1-c1ccncc1 (centres unmarked) [Example B-0629]
6.84 µM | CC(NC(=O)Nc1ccccc1O)c1[nH]nc(-c2ccc(F)cc2)c1-c1ccncc1 (centres unmarked) [Example B-0587]
0.22 µM | O=C(NCc1ccc(S(=O)(=O)NCCc2[nH]nc(-c3ccc(F)cc3)c2-c2ccncc2)s1)c1ccccc1 [Example B-1108]
0.36 µM | CC(NS(=O)(=O)c1ccccc1Cl)c1[nH]nc(-c2ccc(F)cc2)c1-c1ccncc1 (centres unmarked) [Example B-0640]

Same assay, conditions: in vitro P38-alpha kinase; read-out: P38 alpha kinase IC50

IC50 | Structure (SMILES)
0.36 µM | CCCS(=O)(=O)N1CCC(c2[nH]nc(-c3ccc(F)cc3)c2-c2ccncc2)CC1 [Example B-1431]
0.08 µM | O=C(O)c1ccccc1S(=O)(=O)NCCCc1[nH]nc(-c2ccc(F)cc2)c1-c1ccncc1 [Example B-1242]
0.035 µM | O=C(NCCCc1[nH]nc(-c2ccc(F)cc2)c1-c1ccncc1)NCCN1CCCCC1 [Example B-1313]
2.16 µM | Cc1c(-c2ccncc2)c(-c2ccc(F)cc2)nn1CC(=O)NCc1ccc(N(C)C)cc1 [Example B-2275]
0.93 µM | O=S(=O)(c1ccc(Br)cc1)N1CCC(c2[nH]nc(-c3ccc(F)cc3)c2-c2ccncc2)CC1 [Example B-1472]
0.013 µM | CS(=O)(=O)c1ccccc1S(=O)(=O)NCCCc1[nH]nc(-c2ccc(F)cc2)c1-c1ccncc1 [Example B-1294]
< 0.1 µM | COc1ccc(C)cc1S(=O)(=O)NCCCc1[nH]nc(-c2ccc(F)cc2)c1-c1ccncc1 [Example B-1275]
0.013 µM | O=C(NCCCc1[nH]nc(-c2ccc(F)cc2)c1-c1ccncc1)c1cccc(Cl)c1 [Example B-1354]
1.79 µM | COC(=O)CCCNC(=O)Cn1nc(-c2ccc(F)cc2)c(-c2ccncc2)c1C [Example B-2295]
7.18 µM | CCNC(=O)Cn1nc(-c2ccc(F)cc2)c(-c2ccncc2)c1C [Example B-2311]
0.17 µM | Cc1c(Cl)cccc1S(=O)(=O)NCCCc1[nH]nc(-c2ccc(F)cc2)c1-c1ccncc1 [Example B-1252]
0.072 µM | O=C(NCCCc1[nH]nc(-c2ccc(F)cc2)c1-c1ccncc1)c1c(F)cc(F)cc1F [Example B-1336]
0.86 µM | CC(C)COC(=O)N1CCC(c2[nH]nc(-c3ccc(F)cc3)c2-c2ccncc2)CC1 [Example B-1424]
2.34 µM | O=S(=O)(c1ccccc1OC(F)(F)F)N1CCC(c2[nH]nc(-c3ccc(F)cc3)c2-c2ccncc2)CC1 [Example B-1463]
0.014 µM | Cc1cccc(Cl)c1S(=O)(=O)NCCCc1[nH]nc(-c2ccc(F)cc2)c1-c1ccncc1 [Example B-1272]
1.7 µM | O=S(=O)(c1ccc(-c2ccccn2)s1)N1CCC(c2[nH]nc(-c3ccc(F)cc3)c2-c2ccncc2)CC1 [Example B-1439]
0.26 µM | Cc1cc(C)c(S(=O)(=O)NCCCc2[nH]nc(-c3ccc(F)cc3)c2-c2ccncc2)c(C)c1 [Example B-1244]
< 0.1 µM | COc1ccc(Br)cc1S(=O)(=O)NCCCc1[nH]nc(-c2ccc(F)cc2)c1-c1ccncc1 [Example B-1279]
0.053 µM | O=C(NCCCc1[nH]nc(-c2ccc(F)cc2)c1-c1ccncc1)c1ccc(F)c(F)c1 [Example B-1330]
0.043 µM | O=C(NCCCc1[nH]nc(-c2ccc(F)cc2)c1-c1ccncc1)c1cccc(F)c1 [Example B-1346]

Same assay, conditions: read-out: P38 alpha kinase IC50

IC50 | Structure (SMILES)
0.29 µM | CN(C)[C@H]1CC[C@@H](c2[nH]nc(-c3ccc(C(F)(F)F)cc3)c2-c2ccncc2)CC1 [Example C-102, 5-cis-(4-N,N-DIMETHYLAMINOCYCLOHEXYL)-4-(4-PYRIDYL)-3-[4-(TRIFLUOROMETHYL)PHENYL]PYRAZOLE]
